Assay results: PubChem BioAssay (NCI)
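In this assay, cells in 96-well plates receive the compound at five concentrations for 48 hours. Endpoints are linearly interpolated between the surrounding concentrations. TGI marks complete inhibition of growth.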 Where a SMILES comes first, the peptide text is derived from it. The star is where a group is joined. Boc = CC(C)(C)OC(=O)*

Experiments:
Assay in all cases: NCI-60 cell line screen, 48 h
[1] = tested on: MDA-MB-435
[2] = tested on: SK-MEL-2 melanoma
[3] = tested on: ACHN renal
[4] = tested on: 786-0 renal
[5] = tested on: IGROV1 ovarian
[6] = tested on: HS 578T breast
[7] = tested on: DU-145 prostate
[8] = tested on: HOP-62 NSCLC
[9] = tested on: UACC-257 melanoma
[10] = tested on: UO-31 renal

Row | Compound | TGI [1] [µM] | TGI [2] [µM] | TGI [3] [µM] | TGI [4] [µM] | TGI [5] [µM] | TGI [6] [µM] | TGI [7] [µM] | TGI [8] [µM] | TGI [9] [µM] | TGI [10] [µM]
1 | S=C(c1c[nH]c2ccccc12)N1CCN(c2ccccc2)CC1 | > 100 | > 100 | > 100 | > 100 | > 100 | 38.3 | > 100 | > 100 | > 100 | –
2 | CC1(C)C[C@H](O)[C@H](O)[C@]23C(=O)O[C@H](O)[C@H]2C(C=O)=CC[C@@H]13 | > 100 | – | > 100 | > 100 | > 100 | > 100 | > 100 | > 100 | > 100 | > 100
3 | N#C[C@@]12CCCC(=O)[C@@H]1[C@H]1CCC[C@H]12 | 33.5 | 43.3 | 33.1 | 29.4 | 32.2 | > 100 | 28.8 | 30.8 | 36.2 | 30
4 | CC[C@@]1(O)C(=O)OCc2c1cc1n(c2=O)Cc2c-1nc1ccccc1c2/C=N\NC(=O)C(N)Cc1cnc[nH]1 (some centres undefined) | > 85.9 | > 46.5 | 1.18 | – | > 54.7 | > 100 | > 100 | 0.299 | > 84.3 | 2.33
5 | CCOCC(NC(=O)C(CC(C)C)NC(=O)OC(C)(C)C)C(N)=O (stereo not drawn) (Boc-Leu-Ser(Et)-NH2; configuration not given here) | > 100 | > 100 | > 100 | > 100 | > 100 | > 100 | > 100 | > 100 | > 100 | > 100
6 | CC(=O)c1c(-c2ccccc2)c(-c2ccc(OCCN(C)C)cc2)n2ccccc12 | 35.3 | 33.3 | 29.2 | 32.2 | 33.3 | 42.2 | 31.8 | – | 28.9 | 32.1
7 | CC(C)(C)OC(=O)Nc1cc(-c2ccccc2)co1 | > 100 | > 100 | > 100 | > 100 | > 100 | – | > 100 | > 100 | > 100 | > 100
8 | CN[C@@H](C)[C@H](OP(=O)(O)OC1[C@@H](O)[C@H](O)C(O)[C@H](O)[C@@H]1O)c1ccccc1 (some centres undefined) | > 100 | > 100 | > 100 | > 100 | > 100 | > 100 | > 100 | > 100 | > 100 | > 100
9 | O=C(N/N=C\c1ccc([N+](=O)[O-])cc1)c1ccccc1Nc1ccccc1C(=O)N/N=C/c1ccc([N+](=O)[O-])cc1 | > 100 | > 100 | > 100 | > 100 | > 100 | > 100 | > 100 | > 100 | > 100 | > 100
10 | Cc1ccc(S(=O)(=O)/N=C(\[O-])C2=C(c3ccccc3)NN(C)c3nc4cccc[n+]4nc32)cc1 | > 100 | > 100 | > 100 | > 100 | > 100 | > 100 | > 100 | – | > 100 | > 100
11 | CC(C)(C)OC(=O)NC(Cc1ccc(OCc2ccccc2)cn1)C(=O)N1CCSCC1 (centres undefined) | > 100 | > 100 | > 100 | > 100 | > 100 | > 100 | > 100 | > 100 | 82.5 | > 100
12 | CCCC#CC(O)(C(=O)OC1CCN(C)CC1)C1CCCCC1 (centres undefined) | > 100 | > 100 | > 100 | > 100 | > 100 | > 100 | > 100 | > 100 | > 100 | > 100
13 | O=C1/C(=C/c2cccs2)NC(=S)N1CN1CCOCC1 | > 100 | > 100 | > 100 | > 100 | > 100 | > 100 | > 100 | > 100 | > 100 | > 100
14 | NC12CC3CC4C1CC1CC2C(C3)C4(N)C1 | > 100 | > 100 | > 100 | > 100 | > 100 | > 100 | > 100 | > 100 | > 100 | > 100
15 | COc1ccc(N=C2C(=Nc3ccc(OC)cc3)N(S(=O)(=O)c3ccccc3)C(=S)N2c2ccc(OC)cc2)cc1 | > 100 | > 100 | > 100 | > 100 | > 100 | > 100 | > 100 | > 100 | – | > 100
16 | CN(C)CCNC1=CC(=O)c2c(O)ccc(O)c2C1=O | 3.33 | 25.3 | 25.8 | 15.4 | 16.7 | 53.6 | 26.7 | 30.3 | 5.61 | 17
17 | Cc1ccc(Nc2sc(C)cc2C#N)c([N+](=O)[O-])c1 | > 100 | – | > 100 | > 100 | – | – | > 100 | > 100 | > 100 | > 100
18 | CC12CC3(O)OC(O1)C1(COC(=O)c4ccccc4)C3CC21OC1OC(CO)C(O)C(O)C1O (centres undefined) | > 100 | > 100 | > 100 | > 100 | > 100 | > 100 | > 100 | > 100 | > 100 | > 100
19 | O=c1[nH]c2ccc(CC(=S)N3CCN(c4ccccc4)CC3)cc2o1 | > 100 | > 100 | > 100 | > 100 | > 100 | > 100 | > 100 | > 100 | > 100 | > 100
20 | O=C(/C=C\Nc1ccccc1O)C(Cl)(Cl)Cl | 43.8 | > 100 | > 100 | 64.7 | > 100 | > 100 | > 100 | 52.7 | > 100 | 76.5
21 | CCOC(=O)c1cc(=O)oc2c1N(C)c1ncccc1N2 | > 100 | > 100 | > 100 | > 100 | – | > 100 | > 100 | > 100 | > 100 | > 100
